Experimental data from patent publication US20230158025A1 (UNIVERSITY OF UTAH RESEARCH FOUNDATION, priority 2020, published 2023).
Where two headings read alike, the source gives them in different places.

Tests used:
recombinant human GALK1 = recombinant human GALK1 (Homo sapiens, UniProt P51570); test: hGALK1 biochemical activity assay (Kinase-Glo Plus, ATP depletion)
Description: In vitro hGALK1 activity assays were performed as previously described. Liu et al., Bioorg. Med. Chem. Lett. 25(3): 721-727 (2015), which is incorporated by reference herein for the specific teachings thereof. The biochemical assay was performed by coupling the activity of recombinant human or mouse GALK1 to the Kinase-Glo Plus luminescent ATP detection kit, using ATP depletion as a measure of GALK1 turnover. Specifically, three μL/well of ATP substrate solution (35 μM ATP) in assay buffer (20 mM HEPES pH 8.0, 5 mM MgCl2, 60 mM NaCl, 1 mM DTT, 0.01% BSA final concentration) was dispensed into 1536-well assay plates (Greiner, white solid-bottom medium-binding plates). Aliquots of compound (23 nL solubilized in DMSO) were transferred to the assay plates using a Kalypsys 1536-well pintool such that 11 concentrations with 1/3 dilutions ranging from 57.4 μM-0.97 nM are tested. One μL/well of GALK-galactose solution (5 nM GALK1, 100 μM galactose) in assay buffer was then added, yielding a final reaction volume of 4 μL/well. Following a 1-hour room temperature incubation, 4 μL of Kinase-Glo Plus detection reagent was added to provide an ATP-dependent luminescent readout (final assay volume: 8 μL/well).

recombinant mouse GALK1 = recombinant mouse GALK1 (Mus musculus, UniProt Q9R0N0); test: mGALK1 biochemical activity assay (Kinase-Glo Plus, ATP depletion)
Description: In vitro hGALK1 activity assays were performed as previously described. Liu et al., Bioorg. […] The biochemical assay was performed by coupling the activity of recombinant human or mouse GALK1 to the Kinase-Glo Plus luminescent ATP detection kit, using ATP depletion as a measure of GALK1 turnover. […] One μL/well of GALK-galactose solution (5 nM GALK1, 100 μM galactose) in assay buffer was then added, yielding a final reaction volume of 4 μL/well. Following a 1-hour room temperature incubation, 4 μL of Kinase-Glo Plus detection reagent was added to provide an ATP-dependent luminescent readout (final assay volume: 8 μL/well).

[1] = rat microsomal stability (RLM)
[2] = aqueous kinetic solubility; conditions: aqueous kinetic solubility
[3] = Tables 2-15, 35 μM ATP, 100 μM galactose, 1 h, bracketed figure after some values (e.g. −1.2) is undefined and not reported, read-out: hGALK IC50
[4] = recombinant human GALK1, Kinase-Glo Plus ATP depletion, read-out: hGALK
[5] = Tables 2-15, 35 μM ATP, 100 μM galactose, 1 h, bracketed figure after some values is undefined and not reported, read-out: mGALK IC50
[6] = recombinant mouse GALK1, Kinase-Glo Plus ATP depletion, read-out: mGALK

recombinant mouse GALK1, sequence (Q9R0N0 whole entry): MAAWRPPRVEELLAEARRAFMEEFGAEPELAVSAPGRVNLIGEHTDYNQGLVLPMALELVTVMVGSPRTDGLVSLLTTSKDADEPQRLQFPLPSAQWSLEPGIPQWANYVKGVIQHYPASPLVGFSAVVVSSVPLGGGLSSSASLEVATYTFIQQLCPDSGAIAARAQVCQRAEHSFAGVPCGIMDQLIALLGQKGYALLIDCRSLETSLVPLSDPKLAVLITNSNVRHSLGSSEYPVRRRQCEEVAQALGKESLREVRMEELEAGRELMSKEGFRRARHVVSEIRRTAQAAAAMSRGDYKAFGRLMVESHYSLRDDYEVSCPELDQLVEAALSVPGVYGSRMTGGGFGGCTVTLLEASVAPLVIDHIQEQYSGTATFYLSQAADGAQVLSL
recombinant human GALK1, sequence (P51570 whole entry): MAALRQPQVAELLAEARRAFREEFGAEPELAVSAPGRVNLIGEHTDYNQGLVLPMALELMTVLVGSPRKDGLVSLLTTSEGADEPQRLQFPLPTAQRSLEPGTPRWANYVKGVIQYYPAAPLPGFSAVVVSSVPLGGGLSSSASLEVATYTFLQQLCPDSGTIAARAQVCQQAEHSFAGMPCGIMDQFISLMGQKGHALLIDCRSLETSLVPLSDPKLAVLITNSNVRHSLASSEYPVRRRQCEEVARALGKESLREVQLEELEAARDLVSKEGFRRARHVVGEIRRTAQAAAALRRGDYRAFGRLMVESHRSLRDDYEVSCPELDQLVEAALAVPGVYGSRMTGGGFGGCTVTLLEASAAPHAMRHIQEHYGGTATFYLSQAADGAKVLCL

SMILES	IC50 (recombinant human GALK1; [3])	IC50 (recombinant human GALK1; [4])	IC50 (recombinant mouse GALK1; [5])	IC50 (recombinant mouse GALK1; [6])	further results
CC1=C(C(=O)Nc2cc(C(=O)O)ccn2)[C@H](c2ccccc2Cl)N=C(Nc2nc3cccc(N)c3o2)N1 [Compound 24, (R)-2-(2-((7-aminobenzo[d]oxazol-2-yl)amino)-4-(2-chlorophenyl)-6-methyl-1,4-dihydropyrimidine-5-carboxamido)isonicotinic acid]	0.08 µM	0.86 µM	1.72 µM	1.72 µM	–
CC1=C(C(=O)NCc2ccccc2O)C(c2ccccc2Cl)N=C(Nc2nc3ccccc3o2)N1 (stereo not drawn) [Compound 219, 2-(benzo[d]oxazol-2-ylamino)-4-(2-chlorophenyl)-N-(2-hydroxybenzyl)-6-methyl-1,4-dihydropyrimidine-5-carboxamide]	6.85 µM	–	10.9 µM	10.9 µM	Perm. (1 × 10^−6 cm/sec) (PAMPA permeability; PAMPA): <19.3 1 × 10^−6 cm/sec; Metab. Stabil. (m) ([1]; microsomal stability half-life): 5.188 m
COc1ccc([C@H]2N=C(Nc3nc4ccc(F)cc4o3)NC(C)=C2C(=O)Nc2cc(C(=O)O)ccn2)c(Cl)c1 [Compound 54, (S)-2-(4-(2-chloro-4-methoxyphenyl)-2-((6-fluorobenzo[d]oxazol-2-yl)amino)-6-methyl-1,4-dihydropyrimidine-5-carboxamido)isonicotinic acid]	4.84 µM	4.85 µM	19.3 µM	19.3 µM	–
COC(=O)c1ccnc(NC(=O)C2=C(C)NC(Nc3nc4ccc(F)cc4o3)=N[C@H]2c2ccccc2Cl)c1 [Compound 31, (R)-methyl 2-(4-(2-chlorophenyl)-2-((6-fluorobenzo[d]oxazol-2-yl)amino)-6-methyl-1,4-dihydropyrimidine-5-carboxamido)isonicotinate]	–	3.06 µM	–	4.32 µM	Perm. (1 × 10^−6 cm/sec) (PAMPA permeability): <21.9 1 × 10^−6 cm/sec; Metab. Stabil. (m) ([1]; microsomal half-life): 30.91 m
COc1ccc([C@@H]2N=C(Nc3nc4ccc(F)cc4o3)NC(C)=C2C(=O)Nc2cc(C(=O)O)ccn2)c(Cl)c1 [Compound 53, (R)-2-(4-(2-chloro-4-methoxyphenyl)-2-((6-fluorobenzo[d]oxazol-2-yl)amino)-6-methyl-1,4-dihydropyrimidine-5-carboxamido)isonicotinic acid]	0.25 µM	0.25 µM	1.99 µM	1.99 µM	–
CC1=C(C(=O)NCc2cn(C)cn2)C(c2ccccc2Cl)N=C(Nc2nc3ccc(F)cc3o2)N1 (stereo not drawn) [Compound 34, 4-(2-chlorophenyl)-2-((6-fluorobenzo[d]oxazol-2-yl)amino)-6-methyl-N-((1-methyl-1H-imidazol-4-yl)methyl)-1,4-dihydropyrimidine-5-carboxamide]	–	8.63 µM	–	19.3 µM	–
COC(=O)Cc1nnc(NC(=O)C2=C(C)NC(Nc3nc4ccccc4o3)=NC2c2ccccc2Cl)s1 (stereo not drawn) [Compound 174, methyl 2-(5-(2-(benzo[d]oxazol-2-ylamino)-4-(2-chlorophenyl)-6-methyl-1,4-dihydropyrimidine-5-carboxamido)-1,3,4-thiadiazol-2-yl)acetate]	6.11 µM	6.11 µM	–	–	Sol. [2]: <1 µg/mL; Metab. Stabil. (m) ([1]; microsomal stability half-life): 8.0854 m
CC1=C(C(=O)Nc2cc(C(=O)O)ccc2C)C(c2ccccc2Cl)N=C(Nc2nc3ccc(F)cc3o2)N1 (stereo not drawn) [Compound 28, 3-(4-(2-chlorophenyl)-2-((6-fluorobenzo[d]oxazol-2-yl)amino)-6-methyl-1,4-dihydropyrimidine-5-carboxamido)-4-methylbenzoic acid]	–	3.43 µM	–	17.2 µM	–
CC1=C(C(=O)Nc2ccc(-n3cncn3)cc2)C(c2ccccc2Cl)N=C(Nc2nc3ccccc3o2)N1 (stereo not drawn) [Compound 191, N-(4-(1H-1,2,4-triazol-1-yl)phenyl)-2-(benzo[d]oxazol-2-ylamino)-4-(2-chlorophenyl)-6-methyl-1,4-dihydropyrimidine-5-carboxamide]	24.3 µM	24.3 µM	34.3 µM	34.3 µM	–
CC1=C(C(=O)Nc2ccc(C(N)=O)cn2)C(c2ccccc2Cl)N=C(Nc2nc3ccc(F)cc3o2)N1 (stereo not drawn) [Compound 36, N-(5-carbamoylpyridin-2-yl)-4-(2-chlorophenyl)-2-((6-fluorobenzo[d]oxazol-2-yl)amino)-6-methyl-1,4-dihydropyrimidine-5-carboxamide]	–	2.43 µM	–	6.85 µM	–
CC1=C(C(=O)Nc2nc(C(=O)O)cs2)C(c2ccccc2Cl)N=C(Nc2nc3ccccc3o2)N1 (stereo not drawn) [Compound 200, 2-(2-(benzo[d]oxazol-2-ylamino)-4-(2-chlorophenyl)-6-methyl-1,4-dihydropyrimidine-5-carboxamido)thiazole-4-carboxylic acid]	9.68 µM	9.68 µM	19.3 µM	19.3 µM	–
CC1=C(C(=O)Nc2ccc(-c3nn[nH]n3)cn2)C(c2ccccc2Cl)N=C(Nc2nc3ccc(F)cc3o2)N1 (stereo not drawn) [Compound 35, N-(5-(2H-tetrazol-5-yl)pyridin-2-yl)-4-(2-chlorophenyl)-2-((6-fluorobenzo[d]oxazol-2-yl)amino)-6-methyl-1,4-dihydropyrimidine-5-carboxamide]	–	4.85 µM	–	12.2 µM	–
COC(=O)c1ccnc(NC(=O)C2=C(C)NC(Nc3nc4ccc(F)cc4o3)=N[C@@H]2c2ccccc2Cl)c1 [Compound 32, (S)-methyl 2-(4-(2-chlorophenyl)-2-((6-fluorobenzo[d]oxazol-2-yl)amino)-6-methyl-1,4-dihydropyrimidine-5-carboxamido)isonicotinate]	–	12.2 µM	–	86.3 µM	Perm. (1 × 10^−6 cm/sec) (PAMPA permeability): <7.4 1 × 10^−6 cm/sec; Metab. Stabil. (m) ([1]; microsomal half-life): 24.28 m
COC(=O)c1ccccc1NC(=O)C1=C(C)NC(Nc2nc3ccccc3o2)=NC1c1ccccc1Cl (stereo not drawn) [Compound 146]	–	–	–	–	hGALK IC50 (recombinant human GALK1; Tables 2-15, 35 μM ATP, 100 μM galactose, 1 h, bracketed figure after some values (e.g. −1.2) is undefined and not reported): inactive; hGALK (μM) (recombinant human GALK1; recombinant human GALK1, Kinase-Glo Plus ATP depletion): in- active; mGALK IC50 (recombinant mouse GALK1; Tables 2-15, 35 μM ATP, 100 μM galactose, 1 h, bracketed figure after some values is undefined and not reported): inactive; mGALK (μM) (recombinant mouse GALK1; recombinant mouse GALK1, Kinase-Glo Plus ATP depletion): in- active
CC1=C(C(=O)Nc2ccccc2C(=O)O)C(c2ccccc2Cl)N=C(Nc2nc3ccccc3o2)N1 (stereo not drawn) [Compound 159, 2-(2-(benzo[d]oxazol-2-ylamino)-4-(2-chlorophenyl)-6-methyl-1,4-dihydropyrimidine-5-carboxamido)benzoic acid]	–	34.4 µM	–	–	–
CCn1cc(CNC(=O)C2=C(C)NC(Nc3nc4cccc(N)c4o3)=NC2c2ccc(F)cc2Cl)cn1 (stereo not drawn) [Compound 118, 2-((7-aminobenzo[d]oxazol-2-yl)amino)-4-(2-chloro-4-fluorophenyl)-N-((1-ethyl-1H-pyrazol-4-yl)methyl)-6-methyl-1,4-dihydropyrimidine-5-carboxamide]	–	0.76 µM	–	7.69 µM	Perm. (1 × 10^−6 cm/sec) (PAMPA permeability; PAMPA): 188.9 1 × 10^−6 cm/sec; Metab. Stabil. (m) ([1]; microsomal stability half-life): 18.81 m
CC1=C(C(=O)Nc2ccc(O)cc2)C(c2ccccc2Cl)N=C(Nc2nc3ccccc3o2)N1 (stereo not drawn) [Compound 162, 2-(benzo[d]oxazol-2-ylamino)-N-(4-hydroxyphenyl)-4-(2-chlorophenyl)-6-methyl-1,4-dihydropyrimidine-5-carboxamide]	–	3.85 µM	9.68 µM	9.68 µM	Perm. (1 × 10^−6 cm/sec) (PAMPA permeability; PAMPA): <14.5 1 × 10^−6 cm/sec; Metab. Stabil. (m) ([1]; microsomal stability half-life): >30 m
CC1=C(C(=O)Nc2cccc(CCO)c2)C(c2ccccc2Cl)N=C(Nc2nc3ccccc3o2)N1 (stereo not drawn) [Compound 201, 2-(benzo[d]oxazol-2-ylamino)-4-(2-chlorophenyl)-N-(3-(2-hydroxyethyl)phenyl)-6-methyl-1,4-dihydropyrimidine-5-carboxamide]	17.2 µM	17.2 µM	–	–	Metab. Stabil. (m) ([1]; microsomal stability half-life): 26.59 m
CC1=C(C(=O)Nc2ccc(-c3cn[nH]c3)cc2)C(c2ccccc2Cl)N=C(Nc2nc3ccccc3o2)N1 (stereo not drawn) [Compound 179, N-(4-(1H-pyrazol-4-yl)phenyl)-2-(benzo[d]oxazol-2-ylamino)-4-(2-chlorophenyl)-6-methyl-1,4-dihydropyrimidine-5-carboxamide]	6.85 µM	6.85 µM	12.2 µM	12.2 µM	–
